Results published in publication PMC6128652, “Structure of the Cladosporium fulvum Avr4 effector in complex with (GlcNAc)6 reveals the ligand-binding mechanism and uncouples its intrinsic function from recognition by the Cf-4 resistance protein” (PLoS Pathogens, 2018).
pKd: −log10 of the molar value.

Experiments:
Settings in all cases: n = 3
P53A = target: T1, P53A (Fulvia fulva, UniProt Q00363, P53A); assay: Isothermal titration calorimetry, (GlcNAc)6 titrated into protein in 10 mM Bis-Tris, pH 6.5, 100 mM NaCl, individual binding site model; temperature not given.
T1 construct: gene AVR4; true mature form Lys30-Gln115, E. coli Rosetta-gami B
T1 sequence (Q00363 30-115 P53A): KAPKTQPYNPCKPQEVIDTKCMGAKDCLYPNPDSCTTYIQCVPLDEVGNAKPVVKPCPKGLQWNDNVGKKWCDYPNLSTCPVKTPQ
Method: (§1) All ITC experiments were performed on a TA Instruments low volume NanoITC with a 186uL reaction cell and a reference cell filled with degassed Milli-Q grade water. Reactions were run in a buffer containing 10mM Bis-Tris, pH 6.5, 100 mM NaCl. The reservoir solution was filled with protein solution and continuously stirred while Chitin hexasaccharide solutions titrated in 2.5μL aliquots for 19 injections, with an initial 1μL injection, for a total injection volume of 48.5μL. The carbohydrate solutions were made by dissolving the dry powder in buffer to a concentration of 20mM (confirmed using methods described above) and then diluted to the working concentration using the final buffer exchange flow through to match the buffers as closely as possible. The integrated heats, after correction for the heat of dilution were analyzed using the NanoAnalyze software from […]. An individual binding site model was used to fit the binding isotherm. All experiments were replicated a minimum of three times.
(§2) The parameters remained similar irrespectively of whether or not the purification tag was removed from the protein or whether a reverse titration was run, in which concentrated CfAvr4 was titrated into a dilute solution of (GlcNAc)6, with no evidence of allosteric or dimer dissociation (S2 Table and S6 Fig). The values are also in good agreement with previously reported data except for the stoichiometric ratio [9]. […] Due to this discrepancy, we took great care to verify the concentration of CfAvr4 using a Bradford assay, and quantitated the carbohydrate concentration.
(§3) A stock solution of the monomer of N-acetylglucosamine was prepared by dissolving the dry powder in a buffer containing 10 mM Bis-Tris, pH 6.5, 100 mM NaCl to a concentration of 0.100 g/L using analytic techniques. Standard solution of 0, 0.010, 0.025, 0.050, 0.075 g/L were prepared by serial dilutions. Using glass test tubes and pipets, 100 μL of each standard was mixed with 300μL of concentrated sulfuric acid and vortexed for 10 sec to mix. Solutions were incubated at RT for 10 min and then placed on ice to stop the reaction. […] Analytically prepared solution of the di- and tri-saccharide scaled linearly to the calibration curve. To determine the concentration of the chitin hexasaccharide solutions used in ITC, the solutions were diluted into the dynamic range of the calibration curve (S12 Fig) and subjected to the above procedure.

K84A = target: T2, K84A (Fulvia fulva, UniProt Q00363, K84A); assay: as above
T2 construct: gene AVR4; true mature form Lys30-Gln115, E. coli Rosetta-gami B
T2 sequence (Q00363 30-115 K84A): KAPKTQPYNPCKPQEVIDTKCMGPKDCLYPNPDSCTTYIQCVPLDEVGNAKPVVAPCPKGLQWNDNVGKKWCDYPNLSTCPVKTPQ
Method: as §1, §2, §3

D94A = target: T3, D94A (Fulvia fulva, UniProt Q00363, D94A); assay: as above
T3 construct: gene AVR4; true mature form Lys30-Gln115, E. coli Rosetta-gami B
T3 sequence (Q00363 30-115 D94A): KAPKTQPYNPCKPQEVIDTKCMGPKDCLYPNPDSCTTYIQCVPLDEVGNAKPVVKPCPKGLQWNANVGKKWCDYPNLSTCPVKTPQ
Method: as §1, §2, §3

N93A = target: T4, N93A (Fulvia fulva, UniProt Q00363, N93A); assay: as above
T4 construct: gene AVR4; true mature form Lys30-Gln115, E. coli Rosetta-gami B
T4 sequence (Q00363 30-115 N93A): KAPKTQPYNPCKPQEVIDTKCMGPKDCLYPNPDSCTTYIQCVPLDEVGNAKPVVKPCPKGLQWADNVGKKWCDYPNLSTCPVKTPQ
Method: as §1, §2, §3

M51A = target: T5, M51A (Fulvia fulva, UniProt Q00363, M51A); assay: as above
T5 construct: gene AVR4; true mature form Lys30-Gln115, E. coli Rosetta-gami B
T5 sequence (Q00363 30-115 M51A): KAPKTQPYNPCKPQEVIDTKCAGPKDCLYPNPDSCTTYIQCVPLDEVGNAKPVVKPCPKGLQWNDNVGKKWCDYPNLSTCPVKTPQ
Method: as §1, §2, §3

Y103F = target: T6, Y103F (Fulvia fulva, UniProt Q00363, Y103F); assay: as above
T6 construct: gene AVR4; true mature form Lys30-Gln115, E. coli Rosetta-gami B
T6 sequence (Q00363 30-115 Y103F): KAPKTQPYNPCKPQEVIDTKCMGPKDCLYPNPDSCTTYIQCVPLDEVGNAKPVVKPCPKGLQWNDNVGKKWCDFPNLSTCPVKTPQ
Method: as §1, §2, §3

P87A = target: T7, P87A (Fulvia fulva, UniProt Q00363, P87A); assay: as above
T7 construct: gene AVR4; true mature form Lys30-Gln115, E. coli Rosetta-gami B
T7 sequence (Q00363 30-115 P87A): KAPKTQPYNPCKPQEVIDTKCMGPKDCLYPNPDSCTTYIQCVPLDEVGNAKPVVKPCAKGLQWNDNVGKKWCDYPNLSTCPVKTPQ
Method: as §1, §2, §3

WT-CfAvr4 [1] = target: T8, WT-CfAvr4 (Fulvia fulva, UniProt Q00363); assay: as above
T8 construct: gene AVR4; true mature form Lys30-Gln115, N-terminal two 6x His tags and rhinovirus 3C site (tag retained, by contrast with the w/o tag row), E. coli Rosetta-gami B
T8 sequence (Q00363 30-115): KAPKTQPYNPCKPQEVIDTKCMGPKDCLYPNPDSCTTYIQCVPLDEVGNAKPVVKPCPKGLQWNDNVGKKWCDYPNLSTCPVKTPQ
Method: as §1, §2, §3

Q69N = target: T9, Q69N (Fulvia fulva, UniProt Q00363, Q69N); assay: as above
T9 construct: gene AVR4; true mature form Lys30-Gln115, E. coli Rosetta-gami B
T9 sequence (Q00363 30-115 Q69N): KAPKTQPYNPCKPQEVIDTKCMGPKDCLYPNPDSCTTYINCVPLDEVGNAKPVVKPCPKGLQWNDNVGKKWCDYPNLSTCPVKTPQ
Method: as §1, §2, §3

WT-CfAvr4 w/o tag = target: T10, WT-CfAvr4 w/o tag (Fulvia fulva, UniProt Q00363); assay: as above
T10 construct: gene AVR4; true mature form Lys30-Gln115, purification tag removed with rhinovirus 3C protease, E. coli Rosetta-gami B
T10 sequence (Q00363 30-115): as the sequence (Q00363 30-115) above
Method: as §1, §2, §3

N95A = target: T11, N95A (Fulvia fulva, UniProt Q00363, N95A); assay: as above
T11 construct: gene AVR4; true mature form Lys30-Gln115, E. coli Rosetta-gami B
T11 sequence (Q00363 30-115 N95A): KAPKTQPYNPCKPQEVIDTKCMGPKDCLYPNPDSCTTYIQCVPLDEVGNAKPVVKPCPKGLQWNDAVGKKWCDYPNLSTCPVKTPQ
Method: as §1, §2, §3

Y67F = target: T12, Y67F (Fulvia fulva, UniProt Q00363, Y67F); assay: as above
T12 construct: gene AVR4; true mature form Lys30-Gln115, E. coli Rosetta-gami B
T12 sequence (Q00363 30-115 Y67F): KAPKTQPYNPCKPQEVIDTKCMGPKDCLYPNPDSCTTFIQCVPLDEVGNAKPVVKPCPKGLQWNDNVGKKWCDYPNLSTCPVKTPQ
Method: as §1, §2, §3

WT-CfAvr4 [2] = target: T8, WT-CfAvr4; assay: Isothermal titration calorimetry, reverse titration with concentrated CfAvr4 titrated into dilute (GlcNAc)6, 10 mM Bis-Tris, pH 6.5, 100 mM NaCl; temperature not given.; type: binding
From the text: as §2
All ITC experiments were performed on a TA Instruments low volume NanoITC with a 186uL reaction cell and a reference cell filled with degassed Milli-Q grade water. Reactions were run in a buffer containing 10mM Bis-Tris, pH 6.5, 100 mM NaCl. The reservoir solution was filled with protein solution and continuously stirred while Chitin hexasaccharide solutions titrated in 2.5μL aliquots for 19 injections, with an initial 1μL injection, for a total injection volume of 48.5μL. […] The integrated heats, after correction for the heat of dilution were analyzed using the NanoAnalyze software from ITC Technologies. […]

SMILES: CC(=O)N[C@H]1[C@H](O[C@H]2[C@H](O)[C@@H](NC(C)=O)[C@H](O[C@H]3[C@H](O)[C@@H](NC(C)=O)C(O)O[C@@H]3CO)O[C@@H]2CO)O[C@H](CO)[C@@H](O[C@@H]2O[C@H](CO)[C@@H](O[C@@H]3O[C@H](CO)[C@@H](O[C@@H]4O[C@H](CO)[C@@H](O)[C@H](O)[C@H]4NC(C)=O)[C@H](O)[C@H]3NC(C)=O)[C@H](O)[C@H]2NC(C)=O)[C@@H]1O (stereo partly drawn) [(GlcNAc)6, chitohexaose (chitin hexasaccharide, beta-1,4-linked N-acetylglucosamine hexamer)]
- pKd (P53A): 4.95
- pKd (K84A): 3.92
- pKd (D94A): 4.42
- pKd (N93A): 4.35
- pKd (M51A): 5.04
- pKd (Y103F): 4.91
- pKd (P87A): 4.75
- pKd (WT-CfAvr4 [1]): 5.12
- pKd (Q69N): 3.88
- pKd (WT-CfAvr4 w/o tag): 5.17
- pKd (N95A): 4.72
- pKd (Y67F): 5.16
- Kd (WT-CfAvr4 [2]): 7.16 µM
